Experimental data from patent publication US12501898B2, “Synergistic pesticidal compositions and methods for delivery of active ingredients” (0903608 B.C. Ltd., priority 2017, dated 2025).
Values after ≈ are worked out from the molar mass of the structure shown. Values joined by “and” are separate entries in the source; they are usually repeats but may differ in a detail not shown here. Identical values can stand only once. One block for each molecule: values may come before it.

Key:
Botrytis cinerea = assay: Synergistic Growth Inhibition Assay (MIC / FIC index, resazurin) against Botrytis cinerea; assay type: cell-based
Method: (§1) In some embodiments, the synergistic action between the pesticidal active ingredient, and the C6-C10 unsaturated aliphatic acid components of the pesticidal compositions according to embodiments of the present disclosure was tested using a Synergistic Growth Inhibition Assay, which is derived from and related to a checkerboard assay as is known in the art for testing of combinations of antimicrobial agents. In the Synergistic Growth Inhibition Assay used in accordance with some embodiments of the present disclosure, multiple dilutions of combinations of pesticidal active ingredient and C6-C10 (or alternatively C11 or C12) unsaturated aliphatic acid agents are tested in individual cells for inhibitory activity against a target pest or pathogenic organism. In one such embodiment, the combinations of pesticidal active ingredient and C6-C10 unsaturated aliphatic acid agents may preferably be tested in decreasing concentrations. In a further such embodiment, the combinations of pesticidal active ingredient and C6-C10 (or alternatively C11 or C12) unsaturated aliphatic acid agents may be tested in increasing concentrations. These multiple combinations of the pesticidal active ingredient and C6-C10 (or alternatively C11 or C12) unsaturated aliphatic acid agents may be prepared in 96-well microtiter plates. In one such embodiment, the Synergistic Growth Inhibition Assay then comprises rows which each contain progressively decreasing concentrations of the pesticidal active ingredient and C6-C10 (or alternatively C11 or C12) unsaturated aliphatic acid agents to test for the MIC of the agents in combination at which growth of the target pest or pathogen is inhibited. Thus, each well of the microtiter plate is a unique combination of the two agents, at which inhibitory efficacy of the combination against the target pest or pathogen can be determined.
In one embodiment according to the present disclosure, for each row of microtiter cells in the Synergistic Growth Inhibition Assay, the FIC index is calculated from the lowest concentration of the pesticidal active ingredient and C6-C10 unsaturated aliphatic acid agents necessary to inhibit growth of a target pest or pathogen. The FIC of each component is derived by dividing the concentration of the agent present in that well of the microtiter plate by the minimal inhibitory concentration (MIC) needed of that agent alone to inhibit growth of the target pest or pathogen. The FIC index is then the sum of these values for both agents in that well of the microtiter plate. […] Fractional inhibitory concentration indices may then used as measure of synergy. […] When the FIC index is equal to 1, the combination is additive. […]

Sclerotinia sclerotiorum = assay: Synergistic Growth Inhibition Assay (MIC / FIC index) against Sclerotinia sclerotiorum; assay type: cell-based; conditions: for MIC (B): individual compound alone, incubation 7 days
Method: as §1
(§2) In one embodiment according to the present disclosure, for each row of microtiter cells in the Synergistic Growth Inhibition Assay, the FIC index is calculated from the lowest concentration of the pesticidal active ingredient and C6-C10 unsaturated aliphatic acid agents necessary to inhibit growth of a target pest or pathogen. The FIC of each component is derived by dividing the concentration of the agent present in that well of the microtiter plate by the minimal inhibitory concentration (MIC) needed of that agent alone to inhibit growth of the target pest or pathogen. The FIC index is then the sum of these values for both agents in that well of the microtiter plate. […] Fractional inhibitory concentration indices may then used as measure of synergy. […] When the FIC index is equal to 1, the combination is additive.
(§3) In some embodiments of the present disclosure, the exemplary Synergistic Growth Inhibition Assay was conducted starting with an initial composition comprising a pesticidal active ingredient agent at its individual MIC and a C6-C10 (or alternatively C11 or C12) unsaturated aliphatic acid agent at its individual MIC in the first well of a row on a 96 well microtiter plate. Then, serial dilutions of these initial compositions in successive wells in the row of the microtiter plate were used to assay the pesticidal composition under the same conditions to determine the concentration of the composition combining the two agents corresponding to the microtiter well in which growth inhibition of the target pest or organism ceases.
A culture of the representative fungal pathogen, namely Fusarium oxysporum or Botrytis cinerea, for example, is grown to exponential phase in potato dextrose broth (PDB).

Fusarium oxysporum = assay: Synergistic Growth Inhibition Assay (MIC / FIC index, resazurin) against Fusarium oxysporum; assay type: cell-based; conditions: for MIC (B): Compound B (unsaturated aliphatic acid) alone, Fusarium oxysporum
Method: as §1, §2, §3
In some embodiments, Fusarium oxysporum was used as a representative pest organism or pathogen to determine synergy in pesticidal compositions comprising a pesticidal active ingredient agent and a C6-C10 (or alternatively C11 or C12) unsaturated aliphatic acid agent. Resazurin dye (also known as Alamar blue dye) was used as an indicator to determine the presence of growth or inhibition of growth of Fusarium oxysporum in the wells of the 96 well microtiter plates used in the exemplary Synergistic Growth Inhibition Assay.

[1] = Solubility / effective solubilized concentration in 10% DMSO/90% PDB by HPLC
Method: This solution was diluted 10-fold in potato dextrose broth (PDB) to give a concentration of 0.05 mg/mL in 10% DMSO/90% PDB.
This solution was diluted 10-fold in potato dextrose broth (PDB) to give a concentration of 0.1 mg/mL in 10% DMSO/90% PDB.

Trichoplusia ni [2] = assay: In-vitro insecticidal efficacy on treated modified McMorran artificial diet (Colby synergy); assay type: in vivo, Trichoplusia ni (cabbage looper); conditions: Pylon […]
Method: A stock solution was prepared for each of trans-2-hexenoic acid and trans-3-hexenoic acid (both available from Sigma-Aldrich, St. Louis, MO, USA), by dissolving each exemplary unsaturated aliphatic acid in 100% dimethylsulfoxide (DMSO) at a concentration of 20 mg/mL (20,000 ppm). A stock solution for the potassium salt of (2E,4E)-2,4-hexadienoic acid was prepared by dissolving the salt in water to form a 20 mg/mL (20,000 ppm) solution.
An artificial diet suitable for Trichoplusia ni (cabbage looper caterpillar) was prepared according to the modified McMorran artificial diet recipe known in the entomology field (containing agar, casein, potassium hydroxide, alphacel, Wesson's salt mix, sugar, toasted wheat germ, choline chloride, ascorbic acid, methyl paraben, aureomycin, linseed oil and vitamin solution).
The treated artificial diet was then used to fill each well of a 24-well treatment plate with approximately 0.5 mL of artificial diet, which was allowed to solidify at room temperature and stored overnight at approximately 4 C. […] Each experiment contained 3 replicates, and was repeated at least 3 times.
(§4) While for SF<1, antagonism is present and for SF=1, the efficacy of the compounds is merely additive.

Trichoplusia ni [3] = assay: In-planta insecticidal efficacy on sprayed green cabbage plants (Colby synergy); assay type: in vivo, Trichoplusia ni (cabbage looper); conditions: […] Pylon, 0.06 mg/mL acid (salt)
Method: A stock solution for the potassium salt of (2E,4E)-2,4-hexadienoic acid was prepared by dissolving the salt in water to form a 20 mg/mL (20,000 ppm) solution.
Each experiment was repeated at least 3 times.
as §4

[4] = individual compound alone, incubation 48 hours

MIC (B) (Botrytis cinerea; [4]): 39.06 µg/mL and 78.12 µg/mL | MIC (B) (Sclerotinia sclerotiorum): 39.06 µg/mL and 78.12 µg/mL | MIC of individual compound alone (MIC (A) or MIC (B)) (Fusarium oxysporum; 24 hour incubation): 73.36 µg/mL | MIC of individual compound alone (MIC (A) or MIC (B)) (Fusarium oxysporum; 48 hours incubation): 312.5 µg/mL and 78.12 µg/mL
Structure (SMILES): CCCCCCC=CCC(=O)O [3-Decenoic acid, 3-decenoic acid]

MIC (B) (Sclerotinia sclerotiorum): 78.12 µg/mL | MIC of individual compound alone (MIC (A) or MIC (B)) (Fusarium oxysporum; 48 hours incubation): 156.2 µg/mL
Structure (SMILES): CCCC=CCC(=O)O [3-Heptenoic acid, 3-heptenoic acid]

Structure (SMILES): CCCCCC=CCC(=O)O [3-Nonenoic acid, 3-nonenoic acid]
MIC (B) (Sclerotinia sclerotiorum): 39.06 µg/mL and 78.12 µg/mL and 156.2 µg/mL

MIC of individual compound alone (MIC (A) or MIC (B)) (Botrytis cinerea; compound alone, 24 hour incubation): 146.6 µg/mL
Structure (SMILES): CCCCC=CCC(=O)O [3-Octenoic acid, 3-octenoic acid]

MIC (Sclerotinia sclerotiorum; Sclerotinia sclerotiorum, […], Compound B (unsaturated aliphatic acid) alone, 7 days incubation): 156 µg/mL
Structure (SMILES): CC=CCCC(=O)O [4-Hexenoic acid, 4-hexenoic acid]

MIC (B) (Sclerotinia sclerotiorum): 156.2 µg/mL | MIC (B) (Fusarium oxysporum; 48 hours incubation): 156.2 µg/mL
Structure (SMILES): C=CCCCC(=O)O [5-Hexenoic acid, 5-hexenoic acid]

MIC (B) (Fusarium oxysporum; 48 hours incubation): 312.5 µg/mL
Structure (SMILES): C=CCCCCCC(=O)O [7-Octenoic acid, 7-octenoic acid]

MIC (B) (Botrytis cinerea; [4]): 78.12 µg/mL | MIC (B) (Sclerotinia sclerotiorum): 39.06 µg/mL and 78.12 µg/mL | MIC of individual compound alone (MIC (A) or MIC (B)) (Fusarium oxysporum; 24 hour incubation): 71.72 µg/mL | MIC of individual compound alone (MIC (A) or MIC (B)) (Fusarium oxysporum; 48 hours incubation): 312.5 µg/mL
Structure (SMILES): C=CCCCCCCCC(=O)O [9-Decenoic acid, 9-decenoic acid]

Structure (SMILES): C/C=C/C=C/C(=O)[O-].[K+] [(2E,4E)-2,4-hexadienoic acid, potassium salt]
MIC of individual compound alone (MIC (A) or MIC (B)) (Fusarium oxysporum; 24 hour incubation): 625 µg/mL

Structure (SMILES): C/C=C/C=C/C(=O)O [(2E,4E)-2,4-hexadienoic acid]
MIC of individual compound alone (MIC (A) or MIC (B)) (Fusarium oxysporum; 24 hour incubation): 125 µg/mL

Structure (SMILES): CO/C=C(/C(=O)OC)c1ccccc1Oc1cc(Oc2ccccc2C#N)ncn1 [Azoxystrobin, reference compound]
MIC of individual compound alone (MIC (A) or MIC (B)) (Sclerotinia sclerotiorum; compound alone, 7 days incubation): 150 µg/mL | MIC of individual compound alone (MIC (A) or MIC (B)) (Fusarium oxysporum; 48 hours incubation): 150 µg/mL

Structure (SMILES): N#Cc1c[nH]cc1-c1cccc2c1OC(F)(F)O2 [Fludioxonil, fludioxonil, reference compound]
MIC of individual compound alone (MIC (A) or MIC (B)) (Fusarium oxysporum; 24 hour incubation): 0.24063 µg/mL

Structure (SMILES): COC(=O)N(OC)c1ccccc1COc1ccn(-c2ccc(Cl)cc2)n1 [Pyraclostrobin, pyraclostrobin]
solubility in 10% DMSO/90% PDB [1]: 15.4 µg/mL (≈ 39.7 µM)

Structure (SMILES): C/C=C(/C)C(=O)O[C@H]1C[C@@H](OC(C)=O)[C@@]2(C)CO[C@H]3[C@H]4O[C@@H]5C[C@@H](c6ccoc6)C(C)=C5[C@@]4(C)[C@H](CC(=O)OC)[C@]1(C)[C@@H]32 [Salannin]
MIC (Botrytis cinerea; Botrytis cinerea, 48 h, individual compound alone, incubation 48 hours): 50 µg/mL

MIC (B) (Fusarium oxysporum; 48 hours incubation): 156.2 µg/mL | MIC (B) (Fusarium oxysporum; 48 hours incubation, listed as Trans-2-Decenoic acid): 78.12 µg/mL | MIC of individual compound alone (MIC (A) or MIC (B)) (Fusarium oxysporum; 24 hour incubation): 36.25 µg/mL
Structure (SMILES): CCCCCCC/C=C/C(=O)O [Trans-2-decenoic acid, trans-2-decenoic acid]

MIC (B) (Sclerotinia sclerotiorum): 78.12 µg/mL | MIC of individual compound alone (MIC (A) or MIC (B)) (Fusarium oxysporum; 24 hour incubation): 312.5 µg/mL
Structure (SMILES): CCC/C=C/C(=O)O [Trans-2-hexenoic acid, trans-2-hexenoic acid]
72 hr Obs. Efficacy (Trichoplusia ni [2]; 0.05 mg/mL acid (salt)): 0% | 90 hr Obs. Efficacy (Trichoplusia ni [2]; 0.05 mg/mL acid (salt)): 0% | 120 hr Obs. Efficacy (Trichoplusia ni [2]; 0.05 mg/mL acid (salt)): 0% | 72 hr Obs. Efficacy (Trichoplusia ni [2]; 0.30 mg/mL acid (salt)): 0% | 90 hr Obs. Efficacy (Trichoplusia ni [2]; 0.30 mg/mL acid (salt)): 0% | 120 hr Obs. Efficacy (Trichoplusia ni [2]; 0.30 mg/mL acid (salt)): 0% | Observed Efficacy (%) (Trichoplusia ni [3]; after 48 hours): 0% | Observed Efficacy (%) (Trichoplusia ni [3]; after 72 hours): 0%

MIC (B) (Fusarium oxysporum; 48 hours incubation): 156.2 µg/mL
Structure (SMILES): CCCCC/C=C/C(=O)O [Trans-2-octenoic acid, trans-2-octenoic acid]

MIC (B) (Sclerotinia sclerotiorum): 78.12 µg/mL
Structure (SMILES): CCCCCCCC/C=C/C(=O)O [Trans-2-undecenoic acid, trans-2-undecenoic acid]

MIC (B) (Sclerotinia sclerotiorum): 156.2 µg/mL | MIC (B) (Fusarium oxysporum; 48 hours incubation): 156.2 µg/mL | MIC of individual compound alone (MIC (A) or MIC (B)) (Fusarium oxysporum; 24 hour incubation): 312.5 µg/mL | MIC of individual compound alone (MIC (A) or MIC (B)) (Fusarium oxysporum; 48 hours incubation): 312.5 µg/mL
Structure (SMILES): CC/C=C/CC(=O)O [Trans-3-hexenoic acid, trans-3-hexenoic acid]
72 hr Obs. Efficacy (Trichoplusia ni [2]; 0.05 mg/mL acid (salt)): 0% | 90 hr Obs. Efficacy (Trichoplusia ni [2]; 0.05 mg/mL acid (salt)): 0% | 120 hr Obs. Efficacy (Trichoplusia ni [2]; 0.05 mg/mL acid (salt)): 0% | 72 hr Obs. Efficacy (Trichoplusia ni [2]; 0.30 mg/mL acid (salt)): 4% | 90 hr Obs. Efficacy (Trichoplusia ni [2]; 0.30 mg/mL acid (salt)): 4% | 120 hr Obs. Efficacy (Trichoplusia ni [2]; 0.30 mg/mL acid (salt)): 0%

MIC of individual compound alone (MIC (A) or MIC (B)) (Fusarium oxysporum; 48 hours incubation): 156.2 µg/mL
Structure (SMILES): CCCC/C=C/CC(=O)O [Trans-3-octenoic acid, trans-3-octenoic acid]
